# Measurements: patent publication US20240124442A1, “TRICYCLIC-AMIDO-BICYCLIC PRMT5 INHIBITORS” (AMGEN INC., priority 2021, published 2024)
# How the values were obtained:
# HCT116 MTAP null cells = assay: HCT116 MTAP null cell line proliferation / cell viability (CellTiter-Glo, 6 days); type: cell-based; details: 144 h; HCT116 MTAP null cells, 6 days treatment, CellTiter-Glo cell viability; read-out: HCT-116 MTAP null IC50
# How it was run: (§1)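 Anti-proliferative IC50s were derived from CellTiter-Glo signal in HCT116 parent and MTAP-null cells after six days on compound. Serial dilutions reached top concentrations of 1, 10 or 50 μM, with DMSO-only wells as control.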
# HCT116 WT cells = assay: HCT116 WT (parent) cell line proliferation / cell viability (CellTiter-Glo, 6 days); type: cell-based; details: Homo sapiens, HCT-116, 144 h, 6 days treatment
# How it was run: as §1
SMILES,IC50 (HCT116 MTAP null cells) [nM],IC50 (HCT116 WT cells) [nM]
"Nc1nc2cc(Cl)c(C(=O)N(C3CC3)[C@H]3COc4cc(C(F)(F)F)ccc43)cc2c2c1COC2 [Example 443, 4-amino-7-chloro-N-cyclopropyl-N-((3R)-6-(trifluoromethyl)-2,3-dihydro-1-benzofuran-3-yl)-1,3-dihydrofuro[3,4-c]quinoline-8-carboxamide]",433,3460
"CN(C(=O)c1ccc2nc(N)c3c(c2c1)COC3)[C@@H]1COc2cc(S(C)(=N)=O)ccc21 (stereo partly drawn) [Example 446, 4-amino-N-methyl-N-((3S)-6-(S-methylsulfonimidoyl)-2,3-dihydro-1-benzofuran-3-yl)-1,3-dihydrofuro[3,4-c]quinoline-8-carboxamide]",864,36000
"Nc1nc2ccc(C(=O)N(C3CC3)[C@@H]3COc4cc(C(F)(F)F)ccc43)cc2c2c1COC2 [Example 448, 4-amino-N-cyclopropyl-N-((3S)-6-(trifluoromethyl)-2,3-dihydro-1-benzofuran-3-yl)-1,3-dihydrofuro[3,4-c]quinoline-8-carboxamide]",58,3710
"CCN(C(=O)c1ccc2nc(N)c3c(c2c1)COC3)c1coc2cc(C(F)(F)F)ccc12 [Example 451, 4-amino-N-ethyl-N-(6-(trifluoromethyl)-1-benzofuran-3-yl)-1,3-dihydrofuro[3,4-c]quinoline-8-carboxamide]",5180,9520
"CN(C(=O)c1cc2c3c(c(N)nc2cn1)COC3)[C@@H]1COc2cc(F)c(F)cc21 [Example 452, 4-amino-N-((3S)-5,6-difluoro-2,3-dihydro-1-benzofuran-3-yl)-N-methyl-1,3-dihydrofuro[3,4-c][1,7]naphthyridine-8-carboxamide]",173,13400
"CN(C(=O)c1cc2c3c(c(N)nc2cn1)COC3)[C@@H]1COc2cc(-c3cnn(C(F)(F)F)c3)ccc21 [Example 457, 4-amino-N-methyl-N-((3S)-6-(1-(trifluoromethyl)-1H-pyrazol-4-yl)-2,3-dihydro-1-benzofuran-3-yl)-1,3-dihydrofuro[3,4-c][1,7]naphthyridine-8-carboxamide]",63,3770
"CN(C(=O)c1cc2c3c(c(N)nc2cc1F)COC3)[C@@H]1COc2cc(S(C)(=N)=O)ccc21 (stereo partly drawn) [Example 462, 4-amino-7-fluoro-N-methyl-N-((3S)-6-(S-methylsulfonimidoyl)-2,3-dihydro-1-benzofuran-3-yl)-1,3-dihydrofuro[3,4-c]quinoline-8-carboxamide]",237,11700
"C[C@H]1OCc2c1c(N)nc1cc(F)c(C(=O)N(C)[C@@H]3COc4cc(C(F)(F)F)ccc43)cc21 [Example 466, (3R)-4-amino-7-fluoro-N,3-dimethyl-N-((3S)-6-(trifluoromethyl)-2,3-dihydro-1-benzofuran-3-yl)-1,3-dihydrofuro[3,4-c]quinoline-8-carboxamide]",9,245
"C[C@H]1OCc2c1c(N)nc1cc(F)c(C(=O)N(C3CC3)[C@@H]3COc4cc(C(F)(F)F)ccc43)cc21 [Example 467, (3R)-4-amino-N-cyclopropyl-7-fluoro-3-methyl-N-((3S)-6-(trifluoromethyl)-2,3-dihydro-1-benzofuran-3-yl)-1,3-dihydrofuro[3,4-c]quinoline-8-carboxamide]",10,418
"CC(C)N(C(=O)c1cc2c3c(c(N)nc2cc1F)[C@@H](C)OC3)[C@@H]1COc2cc(C(F)(F)F)ccc21 [Example 468, (3R)-4-amino-7-fluoro-3-methyl-N-(2-propanyl)-N-((3S)-6-(trifluoromethyl)-2,3-dihydro-1-benzofuran-3-yl)-1,3-dihydrofuro[3,4-c]quinoline-8-carboxamide]",114,2690
"CC(C)N(C(=O)c1cc2c3c(c(N)nc2cc1F)[C@@H](C)OC3)[C@H]1COc2cc(C(F)(F)F)ccc21 [Example 469, (3R)-4-amino-7-fluoro-3-methyl-N-(2-propanyl)-N-((3R)-6-(trifluoromethyl)-2,3-dihydro-1-benzofuran-3-yl)-1,3-dihydrofuro[3,4-c]quinoline-8-carboxamide]",2730,19700
"C[C@H]1OCc2c1c(N)nc1cc(F)c(C(=O)N(C3CCC3)[C@@H]3COc4cc(C(F)(F)F)ccc43)cc21 [Example 470, (3R)-4-amino-N-cyclobutyl-7-fluoro-3-methyl-N-((3S)-6-(trifluoromethyl)-2,3-dihydro-1-benzofuran-3-yl)-1,3-dihydrofuro[3,4-c]quinoline-8-carboxamide]",27,256
"C[C@H]1OCc2c1c(N)nc1cc(F)c(C(=O)N(C3CCC3)[C@H]3COc4cc(C(F)(F)F)ccc43)cc21 [Example 471, (3R)-4-amino-N-cyclobutyl-7-fluoro-3-methyl-N-((3R)-6-(trifluoromethyl)-2,3-dihydro-1-benzofuran-3-yl)-1,3-dihydrofuro[3,4-c]quinoline-8-carboxamide]",574,13900
"CN(C(=O)c1ccc2nc(N)c3cnn(C)c3c2c1)[C@@H]1COc2cc(C(F)(F)F)ccc21 [Example 473, 4-amino-N,1-dimethyl-N-((3S)-6-(trifluoromethyl)-2,3-dihydro-1-benzofuran-3-yl)-1H-pyrazolo[4,3-c]quinoline-8-carboxamide]",15,349
"CN(C(=O)c1cc2c(cn1)nc(N)c1cnn(C)c12)[C@@H]1COc2cc(Cl)c(Cl)cc21 [Example 474, 4-amino-N-((3S)-5,6-dichloro-2,3-dihydro-1-benzofuran-3-yl)-N,1-dimethyl-1H-pyrazolo[4,3-c][1,7]naphthyridine-8-carboxamide]",8,174
"CN(C(=O)c1cc2c(cc1F)nc(N)c1cnn(C)c12)[C@@H]1COc2cc(F)c(F)cc21 [Example 475, 4-amino-N-((3S)-5,6-difluoro-2,3-dihydro-1-benzofuran-3-yl)-7-fluoro-N,1-dimethyl-1H-pyrazolo[4,3-c]quinoline-8-carboxamide]",8,199
"CN(C(=O)c1cc2c(cc1F)nc(N)c1cnn(C)c12)[C@@H]1COc2cc(Cl)c(Cl)cc21 [Example 476, 4-amino-N-((3S)-5,6-dichloro-2,3-dihydro-1-benzofuran-3-yl)-7-fluoro-N,1-dimethyl-1H-pyrazolo[4,3-c]quinoline-8-carboxamide]",6,125
"CN(C(=O)c1cc2c(cc1F)nc(N)c1cnn(C)c12)[C@H]1COc2cc(Cl)c(Cl)cc21 [Example 477, 4-amino-N-((3R)-5,6-dichloro-2,3-dihydro-1-benzofuran-3-yl)-7-fluoro-N,1-dimethyl-1H-pyrazolo[4,3-c]quinoline-8-carboxamide]",92,2530
"CN(C(=O)c1cc2c(cc1F)nc(N)c1cnn(C)c12)[C@@H]1COc2cc(OC(F)(F)F)ccc21 [Example 478, 4-amino-7-fluoro-N,1-dimethyl-N-((3S)-6-(trifluoromethoxy)-2,3-dihydro-1-benzofuran-3-yl)-1H-pyrazolo[4,3-c]quinoline-8-carboxamide]",5,133
